Assays:
Experiment in all cases: Human cancer xenograft tumor model in nude mouse
Assay type in all cases: in vivo, BALB/C nude mice
[1] = test system: human breast cancer cell strain MDA-MB435 xenograft; conditions: MDA-MB-435 model, 21 d, intraperitoneal once a day, T/C < 60% = effective
Excerpt: (§1) 5-6 week old female or male BALB/C nude mice, about 18-20 g in weight, were raised. Human cancer xenograft tumor model in nude mouse was established by the following steps: human colon cancer cell strains HCT-116 and Colo205, human breast cancer cell strain MDA-MB435, human prostate cancer cell strain BXPC-3, human ovarian cancer cell strain SKOV-3, human lung cancer cell strain A549, human pancreatic cancer cell strain PANC-1, and human uterine cancer cell strain Hela were all obtained from ATCC. Each cell strain was cultured, and monolayer of cultured tumor cells were digested off the walls, collected and resuspended in serum-free culture medium, and adjusted to a concentration of 2×10^6/0.2 mL, which was then brought to the animal room in an ice box. 0.2 mL cell suspension was drawn directly by a syringe with […] and subcutaneously transplanted into the scapula part of the rear part of nude mouse's left armpit, 2×10^6/0.2 mL for each mouse, and the tumor volume was measured every 2-3 days. After two weeks, tumor was removed under sterile conditions from tumor-bearing nude mice with vigorous tumor growth and without diabrosis. The tumor tissue was cut into pieces of about 2˜3 mm and inoculated subcutaneously into the scapula part of the rear part of nude mouse's left armpit. After three passages, when the tumor volume reached 100 mm^3, the nude mice with too large or too small tumors were eliminated and the rest were randomly divided into groups for the administration.
(§2) The mice were randomly divided into 5 groups, including negative control group (solvent), positive control group (BSI-201, 80 mg/kg), and three treatment groups with high, middle and low doses (40 mg/kg, 30 mg/kg, and 20 mg/kg respectively, wherein the high dose was below the MTD), and there were 8 nude mice in each group except that there are 16 ones in the negative control group. They were administered by intraperitoneal injection once a day for 3 consecutive weeks, during which body weight and tumor volume of the animals were detected and the death number of animals was recorded every 2 days. The animals were sacrificed 24 hours after the last administration, and the volume sizes of tumor, tumor weight, and body weight of nude mice were measured; growth curves of tumor volume, growth curves of body weight of nude mice and tumor inhibition rate, animal mortality were plotted, and relative tumor proliferation rate T/C (%) was calculated according to the equation T/C (%)=TRTV/CRTV*100%. (TRTV: RTV of the treatment group; CRTV: RTV of the negative control group, relative tumor volume RTV=Vt/V0, wherein V0 is the tumor volume when the mice were divided into groups for administration, Vt is the tumor volume after the administration).

[2] = test system: human colon cancer cell strain Colo205 xenograft; conditions: Colo-205 model, 21 d, intraperitoneal once a day, T/C < 60% = effective
Excerpt: as §1, §2

[3] = test system: human colon cancer cell strain HCT-116 xenograft; conditions: HCT-116 model, 21 d, intraperitoneal once a day, T/C < 60% = effective
Excerpt: as §1, §2

[4] = test system: human lung cancer cell strain A549 xenograft; conditions: 21 d, intraperitoneal once a day, T/C < 60% = effective
Excerpt: as §1, §2

[5] = test system: human ovarian cancer cell strain SKOV-3 xenograft; conditions: SKOV-3 model, 21 d, intraperitoneal once a day, T/C < 60% = effective
Excerpt: as §1, §2

[6] = test system: human pancreatic cancer cell strain PANC-1 xenograft; conditions: PANC-1 model, 21 d, intraperitoneal once a day, T/C < 60% = effective
Excerpt: as §1, §2

[7] = test system: human prostate cancer cell strain BXPC-3 xenograft; conditions: BXPC-3 model, 22 d, intraperitoneal once a day, T/C < 60% = effective
Excerpt: as §1, §2

[8] = test system: human uterine cancer cell strain Hela xenograft; conditions: 21 d, intraperitoneal once a day, T/C < 60% = effective
Excerpt: as §1, §2

| SMILES | Relative tumor proliferation rate T/C (%) ([1]; 80 mg/kg) | Relative tumor proliferation rate T/C (%) ([2]; 80 mg/kg) | Relative tumor proliferation rate T/C (%) ([3]; 80 mg/kg) | Relative tumor proliferation rate T/C (%) ([4]; 80 mg/kg) | Relative tumor proliferation rate T/C (%) ([5]; 80 mg/kg) | Relative tumor proliferation rate T/C (%) ([6]; 80 mg/kg) | Relative tumor proliferation rate T/C (%) ([7]; 80 mg/kg) | Relative tumor proliferation rate T/C (%) ([8]; 80 mg/kg) | Relative tumor proliferation rate T/C (%) ([1]; 30 mg/kg) | Relative tumor proliferation rate T/C (%) ([2]; 30 mg/kg) | Relative tumor proliferation rate T/C (%) ([3]; 30 mg/kg) | Relative tumor proliferation rate T/C (%) ([4]; 30 mg/kg) | Relative tumor proliferation rate T/C (%) ([5]; 30 mg/kg) | Relative tumor proliferation rate T/C (%) ([6]; 30 mg/kg) | Relative tumor proliferation rate T/C (%) ([7]; 30 mg/kg) | Relative tumor proliferation rate T/C (%) ([8]; 30 mg/kg) |
| --- | --- | --- | --- | --- | --- | --- | --- | --- | --- | --- | --- | --- | --- | --- | --- | --- |
| NC(=O)c1ccc(I)c([N+](=O)[O-])c1 [BSI-201, 4-iodo-3-nitrobenzamide, reference compound] | 44%(80, 21) | 50%(80, 21) | 54%(80, 21) | 42%(80, 21) | 41%(80, 21) | 45%(80, 21) | 48%(80, 22) | 48%(80, 21) | – | – | – | – | – | – | – | – |
| C#Cc1ccc(C(N)=O)cc1[N+](=O)[O-] [Compound I-1, 4-ethynyl-3-nitrobenzamide] | – | – | – | – | – | – | – | – | 40%(30, 21) | 42%(30, 21) | 52%(30, 21) | 40%(30, 21) | 45%(30, 21) | 40%(30, 21) | 43%(30, 22) | 50%(30, 21) |
